Two molecules from paper PMC10544195, “Identification of novel SCD1 inhibitor alleviates nonalcoholic fatty liver disease: critical role of liver-adipose axis” (Cell Communication and Signaling : CCS, 2023) can be followed below.

This test concerns T1, SCD1.
T1 construct: IC50 assay and protein source not described; activity elsewhere measured in mouse OP9 and AML12 cells (native enzyme)
The test is described as follows: SCD1 inhibition, assay not described. Type of test: cell-based. Conditions: assay system not stated.

In the case of `CNC(=O)c1cccc(NC(=O)N2CCC(Oc3ccccc3Cl)CC2)c1` [A939572], the IC50 (in general, the concentration at which inhibition is half-maximal) is 2800 nM.
Then `c1cc(-c2nc3ccc(OCCCN4CCCC4)cc3o2)ccc1OCCCN1CCCC1` [E6446], with 980 nM.
